From patent US9757337B2, “Multicompartmental lipid nanoparticles” (CENTRE NATIONAL DE LA RECHERCHE SCIENTIFIQUE—CNRS, priority 2013, dated 2017)

Test: Stability of quercetin in various fluids quantified by HPLC assay
Format: physicochemical
Method: To this end, the stability of quercetin in various fluids was quantified by means of an HPLC assay. The various fluids studied were simulated gastric fluid (SGF, US Pharmacopeia) at room temperature and at 37° C., simulated intestinal fluid (SIF, US Pharmacopeia), 10 mM HEPES buffer (pH 7.4) and room-temperature water.

stability in more acidic fluids compared with room-temperature water (more acidic fluids (SGF), samples over 24 hours): more stable
quercetin degraded (room-temperature water, within 17 hours): about 50%
SMILES: O=c1c(O)c(-c2ccc(O)c(O)c2)oc2cc(O)cc(O)c12 [quercetin]
